Our source for the EC50 and IC50 values is patent publication US20100292231A1, “Indazole Compounds for Treating Inflammatory Disorders, Demyelinating Disorders and Cancers” (priority 2007, published 2010).

Structures are written as SMILES.

In assay [1] the test system is MV-4-11. In words: MTS cellular proliferation assay. The settings on record: Homo sapiens, MV4-11, 72 hour incubation, read-out: Growth inhibitory activity (in vivo EC50 nM). Type of assay: cell-based. The source says:
The viability of Flt3 expressing cells can be evaluated using a tetrazolium salt reduction cell-based assay. […] BaF3, both wild type and mutant, as well as transfected strains, MV4-11 and MOLM14 are well-characterized Flt3-dependent humanized or human cell lines which express active Flt3 receptors (see, Yee et al. Blood (2002)100 (8):2941-2949; Levis et al. (2002) 99(11): 3885-3891). These cell lines were used to determine the ability of the compounds provided herein to inhibit Flt3 in intact cells. In each case, and by methods known to those practiced in the art of cell culture, proliferation was measured after 72 hour incubation with the compounds provided herein using a standard MTS protocol (Promega Cat #5430 “Cell Titer 96 Aqueous Non-radioactive Cell Proliferation Assay”).
In general, cells were plated at 10,000-20,000 cells per well in DMEM medium with 0.5% serum. The compound plate was set up by aliquoting into column 1 of a 96 well 300 ul polypropylene plate, the negative control (DMSO), aliquoting into column 12 the positive control and titrating the test compound in serial dilutions into columns 2-1 l. An aliquot from each well of the compound plate was transferred to the plated cells and then incubated @ […] in 5% CO2. [00538] MTS tetrazolium compound (Owen's reagent) was thawed in a H2O bath. 20 μl of MTS tetrazolium was added to each well of optical plate and the cells were incubated @ 37° C. in 5% CO2 for 2 hours. The absorbance measured at 490 nm using a microplate reader.
(In general: Tetrazolium assays rely on reduction of a dye to a coloured formazan, in cell work by metabolically active cells.)

For assay [2], the target named is T1, FLT3 (Homo sapiens, UniProt P36888).
T1 construct: purchased Invitrogen (SelectScreen platform)
T1 sequence (P36888 27-993): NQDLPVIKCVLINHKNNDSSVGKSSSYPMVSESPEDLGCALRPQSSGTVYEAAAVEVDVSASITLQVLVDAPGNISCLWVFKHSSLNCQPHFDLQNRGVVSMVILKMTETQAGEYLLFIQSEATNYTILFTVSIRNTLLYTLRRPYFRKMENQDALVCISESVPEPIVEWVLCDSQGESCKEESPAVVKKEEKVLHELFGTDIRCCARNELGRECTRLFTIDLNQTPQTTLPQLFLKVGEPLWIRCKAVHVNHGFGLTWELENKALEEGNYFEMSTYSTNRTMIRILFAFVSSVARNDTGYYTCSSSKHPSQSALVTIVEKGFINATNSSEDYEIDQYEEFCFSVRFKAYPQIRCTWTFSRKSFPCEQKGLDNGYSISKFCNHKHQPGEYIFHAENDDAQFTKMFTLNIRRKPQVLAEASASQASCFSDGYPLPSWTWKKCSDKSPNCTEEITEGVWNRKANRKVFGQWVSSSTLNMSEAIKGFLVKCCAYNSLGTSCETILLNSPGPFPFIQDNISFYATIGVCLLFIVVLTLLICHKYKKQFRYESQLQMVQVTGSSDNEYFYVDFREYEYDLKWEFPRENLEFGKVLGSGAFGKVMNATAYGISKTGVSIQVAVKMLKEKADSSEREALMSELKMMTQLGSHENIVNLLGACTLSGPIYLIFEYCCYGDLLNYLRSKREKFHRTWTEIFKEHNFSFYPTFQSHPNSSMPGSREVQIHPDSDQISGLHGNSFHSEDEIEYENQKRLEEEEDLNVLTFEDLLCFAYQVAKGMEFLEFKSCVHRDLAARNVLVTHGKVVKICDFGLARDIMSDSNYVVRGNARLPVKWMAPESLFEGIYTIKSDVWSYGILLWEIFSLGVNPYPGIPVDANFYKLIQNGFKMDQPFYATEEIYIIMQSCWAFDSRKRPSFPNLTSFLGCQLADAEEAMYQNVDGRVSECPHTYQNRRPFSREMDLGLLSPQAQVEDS
The assay can be described thus: Kinase EC50 (10 pt curve or estimate, ATP Kmapp). Type of assay: biochemical. The settings on record: from 10 pt curve or estimate based on 1 μm inhibition assay at ATP Kmapp.

Assay [3] has as its system PC-3 (prostate cancer) cell line. The assay can be described thus: sulforhodamine B (SRB) cytotoxicity assay. The settings on record: Homo sapiens, PC-3, 72 h; 100 μM highest concentration, diluted 1:5; 3 day incubation; read-out: IC50 Measured Against PC-3 Cell Line. Type of assay: cell-based. The method, then: (§1) The cytotoxic activity of compounds listed in Table 5 was determined with a sulforhodamine B (SRB) assay on panel of cell lines, including MdaMb231 (breast cancer), MV4-11 (leukemia), PC-3 (prostate cancer), U266B1 (multiple myeloma), C7 macrophages, and Raw264.7 (murine macrophage-like cells).
(§2) Cells growing in relevant media were seeded in a 96 well plate and left to adhere overnight. Cells were plated at appropriate cell densities: • MV4-11: 20.000 cells/well • Mda-Mb231: 6000 cells/well • C7: 10.000 cells/well • Raw264.7: 2000 cells/well • PC-3: 6000 cells/well • U266B1: 40.000 cells/well.
(§3) Cells were incubated before the compounds were added the next day to a top concentration of 100 μM and serially diluted 1 in 5 across the plate. After a 3 day incubation period (6 days for C7 and Raw264.7) cells were fixed with trichloroacetic acid (TCA) to end concentration of 10% for adherent cells and 16% end concentration for suspension cells for 1 hr at 4° C. before washing. Cells were stained with 0.4% sulforhodamine-B dye (SRB) in 1% acetic acid for 30 minutes and washed in 1% acetic acid. To solubilize the dye 100 μl 10 mM Tris, pH 10.5 was added and the absorbance was read at 564 nm. IC50 values were generated using the SoftMAX Pro™ software. The data is presented below in Tables 6 through 11.
A general note: Sulforhodamine B stains cellular protein and so reports cell mass.

Assay [4] deals with U266B1 (multiple myeloma) cell line. The assay can be described thus: sulforhodamine B (SRB) cytotoxicity assay. Type of assay: cell-based. The settings on record: 72 h, 100 μM highest concentration, diluted 1:5, 3 day incubation, read-out: IC50 Measured Against U266B1 Cell Line. The method, then: as §1, §2, §3
Assay [5] has as its system Raw264.7 (murine macrophage-like cells). The assay can be described thus: sulforhodamine B (SRB) cytotoxicity assay. Type of assay: cell-based. The settings on record: Mus musculus, RAW264.7, 144 h; 25 μM highest concentration, diluted 1:5; 6 days; read-out: IC50 Measured Against Raw264.7 Cell Line.
Assay [6] has as its system C7 macrophages. The assay can be described thus: sulforhodamine B (SRB) cytotoxicity assay. The settings on record: Macrophage, 144 h; 5 μM highest concentration, diluted 1:4; 6 day assay; read-out: IC50 Measured Against C7 Cell Line (6 day assay). Type of assay: cell-based. As for the experimental part: as §1, §2, §3

One may read the EC50 as the concentration at which the effect is half-maximal. For `CN(C)CCCCCNc1ccc2ncn3c4ccc5[nH]ncc5c4c(=O)c1c23` [(III)], in assay [1], the EC50 is 184 nM.

As a reminder, the IC50 is the concentration that inhibits the measured activity by half. For `O=c1c2c(NCCCN3CCOCC3)ccc3ncn(c4ccc5[nH]ncc5c14)c32` [(X)], in assay [2], the EC50 is 11 nM. For the same compound, the IC50 in assay [3] turned out to be 17300 nM; in assay [4], 7060 nM; in assay [5] it was 2.7 nM.

For `CN(C)CCNc1ccc2ncn3c4ccc5[nH]ncc5c4c(=O)c1c23` [(XII)], the EC50 in assay [2] is 5 nM. The IC50 in assay [4] worked out at 6110 nM.

`CC(CCN1CCOCC1)Nc1ccc2ncn3c4ccc5[nH]ncc5c4c(=O)c1c23` (stereo not shown) [(XVI)]: the EC50 in assay [2] is 9 nM. For the same compound, the IC50 in assay [3] was determined as 8920 nM; in assay [4], 14500 nM; in assay [5], 25.7 nM.

For `CN1CCN(CCCNc2ccc3ncn4c5ccc6[nH]ncc6c5c(=O)c2c34)CC1` [(XVII)], the half-maximal effective concentration (EC50) in assay [2] was 15 nM. The IC50 came out at 360 nM in assay [6], 9650 nM in assay [3] and 2.6 nM in assay [5].

For the compound `CN(C)CCCNc1ccc2ncn3c4ccc5[nH]ncc5c4c(=O)c1c23` [Compound (IV)], the EC50 was 14 nM in assay [2] and 12 nM in assay [1]. The figures for the IC50 in assay [3] and in assay [4] were 2970 nM and 6940 nM, respectively.

With `CCN(CC)CCCNc1ccc2ncn3c4ccc5[nH]ncc5c4c(=O)c1c23` [Compound (XV)], the concentration for a half-maximal effect (EC50) in assay [2] is 11 nM. The IC50 in assay [6] stood at 13 nM; in assay [3], 32800 nM.

As to `CCN(CC)CCNc1ccc2ncn3c4ccc(O)cc4c(=O)c1c23` [Symadex, 5-(2-(diethylamino)ethylamino)-8-hydroxy-6H-imidazo[4,5,1-de]acridin-6-one, reference compound], the EC50 is 40 nM in assay [2] and 13.1 nM in assay [1]. In addition, the IC50 in assay [6] came to 15 nM.
